Experimental data: ChEMBL document CHEMBL5625193, “Modulation of taxane binding to tubulin curved and straight conformations by systematic 3'N modification provides for improved microtubule binding, persistent cytotoxicity and in vivo potency” (Eur J Med Chem, 2023); call rule not given here

Key:
[1] = human, mda-mb-231, 24 h
[2] = human, mda-mb-231, 2 h

In the case of CC(=O)O[C@H]1C(=O)[C@@]2(C)[C@H]([C@H](OC(=O)c3ccccc3)[C@]3(O)C[C@H](OC(=O)[C@H](O)[C@@H](NC(=O)c4ccccc4)c4ccccc4)C(C)=C1C3(C)C)[C@]1(OC(C)=O)CO[C@@H]1C[C@@H]2O [PACLITAXEL], the Drug uptake [1] is reported as “Active” and the Drug uptake [2] is reported as “Active”.
